Data: article PMC7083880 (Nature Communications, 2020)

Assays:
[1] = tested on: p53 target gene p21 in Calu-6 cells; test: p21 mRNA level by quantitative RT-PCR, Calu-6; format: cell-based, human
Excerpt: The three leftmost lanes show twofold serial dilutions of untreated HeLa cell extract. The molecular weight is indicated to the left of each gel. b Schematic representation of the construct used to measure the function of p53. The construct carries a cDNA encoding the firefly luciferase under a promoter having two p53-responsive elements (underlined). […] The level of p21 mRNA is related to the amount of functional p53 protein synthesized in the cell. The results presented in panels b and c are representative of at least two independent experiments., p-values (p) were calculated using Student’s t-test. Source data are provided as a Source Data file.
Although DAP clearly promoted the synthesis of full-length proteins from UGA-nonsense-mutation-containing mRNAs, it was necessary to ascertain that the readthrough protein was functional. […] The first involved measuring the transcriptional activity of the p53 readthrough protein in Calu-6 cells transfected with an expression vector carrying the cDNA encoding firefly luciferase under the control of a promoter with two p53-responsive elements (Fig. 2b)[33]. Upon DMSO treatment, only basal luciferase activity was detected, reflecting promoter leakage (Fig. 2c). […] The second assay used the p53 target gene p21 (ref. [44]).
RNA was purified using RNazol (MRC) according to the manufacturer’s instructions. 1/5 of the RNA preparation was used for reverse-transcription (RT) PCR (RT-PCR) using Superscript II (Life Technologies) for 2 h at 42 °C in the presence of random hexamers. The resulting cDNAs were PCR amplified in the presence of dCTP(α^33P) (Perkin Elmer) with the following primers: GAPDH mRNA (sense: 5′-[…]-3′; antisense: 5′-[…]-3′), p53 mRNA (sense: 5′-[…]-3′; antisense: 5′-[…]-3′), p21 mRNA (sense: 5′-[…]-3′; antisense: 5′-[…]-3′). PCR products were quantified with Personal Molecular Imager and QuantityOne quantification software (Bio-Rad).

[2] = target: T1, CTU1 (Homo sapiens, UniProt Q7Z7A3); test: UGA readthrough luciferase assay with CTU1 overexpression; format: cell-based;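 for luciferase activity, average: DAP exposure for 24 h before luciferase measurement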;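 for luciferase activity, exp2: DAP exposure for 24 h before luciferase measurement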
T1 construct: host or cells: HeLa
T1 sequence (Q7Z7A3 1-348): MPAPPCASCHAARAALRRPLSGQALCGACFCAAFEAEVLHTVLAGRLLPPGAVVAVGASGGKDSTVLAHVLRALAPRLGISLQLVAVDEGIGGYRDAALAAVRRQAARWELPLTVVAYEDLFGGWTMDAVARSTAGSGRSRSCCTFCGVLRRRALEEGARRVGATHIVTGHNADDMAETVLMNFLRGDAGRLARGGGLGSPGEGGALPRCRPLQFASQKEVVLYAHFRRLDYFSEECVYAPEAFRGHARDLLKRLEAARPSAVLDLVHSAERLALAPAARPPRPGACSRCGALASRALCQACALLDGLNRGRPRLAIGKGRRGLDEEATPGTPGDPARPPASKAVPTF
Excerpt: Firefly luciferase from HEK293FT cells transfected with the Fluc-int-UGA construct was immunoprecipitated and digested with trypsin. The MS/MS spectrum of the peptide containing the PTC position and the sequence determination are shown. The upper red and blue sequences indicate the amino acids validated, respectively, by detection of Nter and Cter peptide fragments (b and y ion series). Peptide fragments y6 and y7 clearly identify tryptophan (W) at the PTC position. The black peaks correspond to non-attributed mass-to-charge ratio (m/z) values. […] Readthrough efficiency was determined by measuring luciferase activity in HeLa cells co-transfected with the firefly luciferase construct described in Fig. 1b and with increasing amounts of an expression vector for either FTSJ1 or CTU1 (0.5, 1, or 2 µg). The empty expression vector (E.v.) was used as control. […] The experiment was performed twice and the results of both experiments (Exp1 and Exp2) are shown. c Western blot analysis of FTSJ1 and CTU1. d 2′-O-methylation analysis of tRNA^Trp, tRNA^SER, and tRNA^GLN by RiboMethSeq. […] A molecular weight marker is indicated to the left of each gel. p-values (p) were calculated using Student’s t-test. Source data are provided as a Source Data file.
Among the enzymes modifying tRNAs liable to recognize a stop codon by extended wobbling, human FTSJ1 (TRM7 in yeast) exclusively modifies tRNAs involved in UGA readthrough. In addition to other tRNA targets, FTSJ1 methylates the cytosine at position 34 of tRNA^Trp. Inhibition of this modification could increase the capacity of tRNA^Trp to misdecode and recognize the UGA stop codon. […] FTSJ1 and CTU1 overexpression were assessed by western-blot analysis (Fig. 5c).

Compound: CN[C@@H]1[C@@H](O)[C@@H](O[C@@H]2[C@@H](O)[C@H](O[C@H]3O[C@H]([C@@H](C)O)[C@@H](O)[C@H](O)[C@H]3N)[C@@H](N)C[C@H]2N)OC[C@]1(C)O [G418, reference compound]
- Level of p21 mRNA (DMSO = 1) ([1]; 25µM, average): 1.18
- Level of p21 mRNA (DMSO = 1) ([1]; 25µM, experiment 1): 1.069
- Level of p21 mRNA (DMSO = 1) ([1]; 25µM, experiment 2): 1.178
- Level of p21 mRNA (DMSO = 1) ([1]; 25µM, experiment 3): 1.295
- Level of p21 mRNA (DMSO = 1) ([1]; 600µM, average): 1.145
- Level of p21 mRNA (DMSO = 1) ([1]; 600µM, experiment 1): 0.7456
- Level of p21 mRNA (DMSO = 1) ([1]; 600µM, experiment 2): 1.569
- Level of p21 mRNA (DMSO = 1) ([1]; 600µM, experiment 3): 1.121
- luciferase activity, average ([2]; 0.5µg CTU1, 25µM): 3303.88
- luciferase activity, exp1 ([2]; 0.5µg CTU1, 25µM): 2866.5
- luciferase activity, exp1*1,5 ([2]; 0.5µg CTU1, 25µM): 4299.75
- luciferase activity, exp2 ([2]; 0.5µg CTU1, 25µM): 2308
- luciferase activity, average ([2]; 0.5µg CTU1, 600µM): 6542.12
- luciferase activity, exp1 ([2]; 0.5µg CTU1, 600µM): 5872.5
- luciferase activity, exp1*1,5 ([2]; 0.5µg CTU1, 600µM): 8808.75
- luciferase activity, exp2 ([2]; 0.5µg CTU1, 600µM): 4275.5
- luciferase activity, average ([2]; 1µg CTU1, 25µM): 3585
- luciferase activity, exp1 ([2]; 1µg CTU1, 25µM): 3346
- luciferase activity, exp1*1,5 ([2]; 1µg CTU1, 25µM): 5019
- luciferase activity, exp2 ([2]; 1µg CTU1, 25µM): 2151
- luciferase activity, average ([2]; 1µg CTU1, 600µM): 5848.5
- luciferase activity, exp1 ([2]; 1µg CTU1, 600µM): 6204
- luciferase activity, exp1*1,5 ([2]; 1µg CTU1, 600µM): 9306
- luciferase activity, exp2 ([2]; 1µg CTU1, 600µM): 2391
- luciferase activity, average ([2]; 2µg CTU1, 25µM): 2193.38
- luciferase activity, exp1 ([2]; 2µg CTU1, 25µM): 1845.5
- luciferase activity, exp1*1,5 ([2]; 2µg CTU1, 25µM): 2768.25
- luciferase activity, exp2 ([2]; 2µg CTU1, 25µM): 1618.5
- luciferase activity, average ([2]; 2µg CTU1, 600µM): 2999.5
- luciferase activity, exp1 ([2]; 2µg CTU1, 600µM): 2670
- luciferase activity, exp1*1,5 ([2]; 2µg CTU1, 600µM): 4005
- luciferase activity, exp2 ([2]; 2µg CTU1, 600µM): 1994
